Tests used:
SHP-1 = SHP-1 (Homo sapiens, UniProt P29350); assay: SHP-1 activity in treated HCC cells (tyrosine phosphatase assay kit); assay type: cell-based; design: endogenous in cells; conditions: SK-Hep1 cells
Text: The RediPlate 96 EnzChek® Tyrosine Phosphatase Assay Kit (R-22067) was used for SHP-1 activity assay (Molecular Probes, Carlsbad, Calif.). The Raf-1 kinase cascade assay kit (Upstate-Millipore, Billerica, Mass.) was used to examine the Raf-1 kinase activity. The JAK2 kinase activity kit was purchased from Reaction Biology Corp. (Malvern, Pa.).

Huh-7 xenograft tumor = assay: Huh-7 xenograft with SC-59 or sorafenib and radiation; assay type: in vivo, mice
Method: (A) The effects of SC-59 and radiation on tumor growth. Each mouse was inoculated subcutaneously in the right leg with […] Huh-7 cells suspended in Matrigel. When the tumor reached a volume of 400-600 mm3, mice received vehicle, 5 Gy radiation (one fraction per day) for 4 days, or 10 mg/kg SC-59 p.o. once daily, or a combination for the duration of the study. The data points indicate the mean values (n=6) and the bars indicate the standard error. There were significant differences between the combined treatment group and the vehicle control group (*, P<0.05, **, P<0.01). (B) Left, the expression of P-STAT3 in the Huh-7 tumors was analyzed by western blot. Right, quantified data for p-STAT3 to STAT3. (C) The activity of SHP-1 in Huh-7 tumors. Values are means±SD, *, P<0.05. (D) Body weight of mice after SC-59 and RT treatment. […] The data points indicate the mean values (n=6) and the bars indicate the standard error. […] (H) Body weight of mice treated with vehicle, RT, sorafenib, and combination.
To further elucidate the molecular events responsible for this synergistic effect, we examined the expression level of p-STAT3 in the tumor extract.

[1] = tested on: p-STAT3, cyclin D1, survivin, Mc1-1; assay: Western blot of STAT3-related proteins in HCC cells; assay type: cell-based; conditions: HCC cells, 24 h
Method: Cells were treated with various compounds at 5 and 10 μM for 24 h. Cell lysates were analyzed by western blot.
HCC cells treated with SC-43 (10 μM for 24 h) were collected with RIPA lysis buffer. Antibodies for immunoblotting such as cyclin D1 was purchased from Santa Cruz Biotechnology. Other antibodies such as survivin, phospho-STAT3 (Tyr705), STAT3, Mc1-1, SOCS1, and SOCS3 were from Cell Signaling.

SHP-1, sequence (P29350 whole entry): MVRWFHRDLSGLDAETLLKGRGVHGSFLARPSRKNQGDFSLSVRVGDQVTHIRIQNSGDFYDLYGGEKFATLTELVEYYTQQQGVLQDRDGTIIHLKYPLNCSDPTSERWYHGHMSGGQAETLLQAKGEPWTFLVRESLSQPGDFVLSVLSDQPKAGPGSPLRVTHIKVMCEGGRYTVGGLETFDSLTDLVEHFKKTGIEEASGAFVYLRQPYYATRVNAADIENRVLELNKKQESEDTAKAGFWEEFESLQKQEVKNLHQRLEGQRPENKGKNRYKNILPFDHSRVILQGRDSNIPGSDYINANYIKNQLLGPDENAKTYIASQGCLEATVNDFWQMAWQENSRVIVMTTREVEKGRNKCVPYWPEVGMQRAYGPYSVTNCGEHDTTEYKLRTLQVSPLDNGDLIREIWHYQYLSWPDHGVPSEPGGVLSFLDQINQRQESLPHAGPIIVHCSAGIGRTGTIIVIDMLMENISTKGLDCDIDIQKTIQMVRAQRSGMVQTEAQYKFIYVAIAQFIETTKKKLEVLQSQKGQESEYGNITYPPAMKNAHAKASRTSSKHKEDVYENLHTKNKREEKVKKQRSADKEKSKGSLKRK

With `Cc1ccc(NC(=O)Nc2ccc(Cl)c(C(F)(F)F)c2)cc1Oc1ccc(C#N)cc1` [SC-59, 1-(4-chloro-3-(trifluoromethyl)phenyl)-3-(3-(4-cyanophenoxy)-4-methylphenyl) urea] the “phosphatase activity of SHP-1 in cells” value (SHP-1) was “significantly increased the phosphatase activity of SHP-1 in SK-Hep1 cells”, the “tumor growth with radiotherapy combination” value (Huh-7 xenograft tumor; 10 mg/kg p.o. once daily plus 5 Gy radiation for 4 days) was “displayed significant tumor growth inhibition compared to radiotherapy or SC-59 alone” and the “SHP-1 phosphatase activity in tumor samples” value (Huh-7 xenograft tumor; Huh-7 tumors, 10 mg/kg p.o.) was “induction of SHP-1 phosphatase activity was observed”. For the same compound, the “p-STAT3 in treated tumor samples” value (Huh-7 xenograft tumor; Huh-7 tumors, 10 mg/kg p.o.) was “resulted in clear inhibition of p-STAT3”, the body weight (Huh-7 xenograft tumor; Huh-7 xenograft, 10 mg/kg p.o.) was “no significant difference in body weight” and the “p-STAT3 and STAT3-related proteins (Western blot)” value [1] was “downregulated phospho-STAT3 (p-STAT3) at tyrosine 705 along with its downstream molecules”.

From patent US9090617B1, “Agonists of Src homology-2 containing protein tyrosine phosphatase-1 and treatment methods using the same” (National Taiwan University, priority 2011, dated 2015)
